Laboratory results published in article PMC8249783, “A novel multikinase inhibitor SKLB‐YTH‐60 ameliorates inflammation and fibrosis in bleomycin‐induced lung fibrosis mouse models” (Cell Proliferation, 2021).
Read-outs that look alike come from different tables or passages of the source.

Tests used:
[1] = Pharmacokinetics study after IV and PO administration to SD rats; format: in vivo; details: rat, plasma
Protocol: The appropriate amount of YTH‐60 was accurately weighed, added to the final volume of 5% DMSO, 40% PEG400 and 55% normal saline, and vortexed or ultrasonicated to fully mix. Then, 0.4 and 2 mg·mL^−1 of clarified dosing solution was used for intravenous administration and oral gavage administration. SD rats were transferred from the Experimental Animal Library (999 M‐017), Shanghai Xipuer‐Beikai Experimental Animal Co. Ltd. After oral, intravenous or intragastric administration, blood was collected by jugular vein or other suitable methods. Approximately 0.20 mL of each sample was collected, in the presence of heparin sodium as an anticoagulant. After the blood samples were collected, they were placed on ice and centrifuged to separate plasma within 2 hours (centrifugation conditions: centrifugal force 6800 g, 6 minutes, 2‐8°C). The collected plasma samples were stored at −80°C before analysis by LC‐MS/MS‐18. After analysis, the remaining plasma samples were stored at −80°C for a period of 1 month.

[2] = tested on: A549 cells; assay: Wound healing assay; format: cell-based, human; details: A549, combined with TGF‐β1 vs TGF‐β1 alone
Protocol: A549 cells (1 × 10^6 well^−1) were grown on 6‐well plates in 2 mL 10% FBS DMEM medium. Making a scratch with a sterile 200 μL microtube tip after 24 hours and the scratched cells were washed gently with serum‐free DMEM. Then, TGF‐β1 or YTH‐60 added to their corresponding wells and cultured for 24 hours. Each picture was imaged at three different locations. ImageJ software was used to estimate the percentage of the original width by measuring the width of the scratches.

[3] = tested on: lung MDSCs and macrophages; assay: Flow cytometry of MDSCs and macrophages in lung tissue of BLM mice; format: in vivo, C57BL/6 mice; details: 30 mg·kg^−1 i.p.
Protocol: Male C57BL/6 mice (8‐10 weeks old) were purchased from HFK Bioscience Co. Ltd. All animal experiments were permitted by the Institutional Animal Care and Treatment Committee of Sichuan University in China (New Permit Number: 20190524003). Lung fibrosis was induced using BLM treatment (2 mg·kg^−1). All C57BL/6 mice were divided into five groups (n = 10): a BLM + Nintedanib group (Nintedanib, 30 mg·kg^−1), a BLM + YTH‐60 group (YTH‐60, 15 mg·kg^−1 and 30 mg·kg^−1), a control group (Sham), and a bleomycin group (Vehicle). At the beginning, the mice were anaesthetized using 10% chloral hydrate, dissolved BLM with saline and administered intratracheally. To evaluate the preventive effect, the next day after BLM challenge, YTH‐60 and Nintedanib were administered intraperitoneally daily for 13 days (fibroproliferation) to the mice. All mice were sacrificed 24 hours after the last drug injection, the lungs and other organs were taken for the subsequent analysis. To test the therapeutic effect, after the 7th day of BLM treatment, mice were injected intraperitoneally with YTH‐60, Nintedanib and vehicle daily for 7 consecutive days (fibroproliferation).
We analysed the percentage of MDSCs and macrophages by Flow cytometry (FCM). ^22 Use scissors to cut approximately 30 mg of mouse lung tissues into small pieces and use 5 mL of collagenase‐IV with a concentration of 1 mg·mL^−1, digested at 37°C for at least 1 hour. Centrifuge at 400 g for 5 minutes and discard the supernatant. Then, add another 5 mL PBS to resuspend, after precipitation, taken the supernatant and mixed with the corresponding fluorochromium binding antibody, incubate for 30 minutes in the dark at 4°C (MDSCs with PE^−CD11b^−, FITC^−Gr1^− conjugated dual labelling and macrophages with PE^−F4/80^−, FITC^−CD11b^− conjugated dual labelling). The data were acquired with a FACS Canton II NovoCyte (ACEA).

[4] = Sprague-Dawley, iv, 2 mg/kg, IV 2 mg/kg, individual animals 101, 102, 103, read-out: Individual plasma concentration
[5] = Sprague-Dawley, iv, 2 mg/kg, IV 2 mg/kg, read-out: Mean plasma concentration
[6] = Sprague-Dawley, po, 20 mg/kg, PO 20 mg/kg, individual animals 201, 202, 203, read-out: Individual plasma concentration
[7] = Sprague-Dawley, po, 20 mg/kg, PO 20 mg/kg, read-out: Mean plasma concentration

COc1cc(OC)c(Cl)c(-c2ccc3c(/C=C/c4ccc(N(C)C(=O)CN5CCN(C)CC5)cc4)n[nH]c3c2)c1Cl [YTH‐60, (E)‐N‐(4‐(2‐(6‐(2,6‐dichloro‐3,5‐dimethoxyphenyl)‐1H‐indazol‐3‐yl)vinyl)phenyl)‐N‐methyl‐2‐(4‐methylpiperazin‐1‐yl)acetamide]
concentration at 8 h ([1]; SD, po, 20 mg/kg, PO 20 mg/kg, individual animals 201, 202, 203, read-out: Individual plasma concentration): 67.4 ng/mL | concentration at 8 h ([1]; SD, po, 20 mg/kg, PO 20 mg/kg, read-out: Mean plasma concentration): 81.5 ng/mL | AUC ([1]; SD, po, 20 mg/kg, SD rats, 20 mg·kg^−1 oral administration, read-out: mean AUC(0‐t)): 1380 ng·h/mL | AUC ([1]; SD, po, 20 mg/kg, SD rats, p.o. 20 mg·kg^−1, read-out: AUC0‐t): 1380 ± 152 ng·h/mL | AUC ([1]; SD, po, 20 mg/kg, SD rats, p.o. 20 mg·kg^−1, read-out: AUC0‐∞): 1610 ± 177 ng·h/mL | MRT ([1]; SD, po, 20 mg/kg, SD rats, p.o. 20 mg·kg^−1, read-out: MRT0‐t): 8.38 ± 0.31 h | MRT ([1]; SD, po, 20 mg/kg, SD rats, p.o. 20 mg·kg^−1, read-out: MRT0‐∞): 12.4 ± 2.67 h | concentration at 0.083 h [1, 4]: 355 ng/mL | concentration at 0.083 h [1, 5]: 380 ng/mL | concentration at 0.25 h [1, 4]: 187 ng/mL | concentration at 0.25 h [1, 5]: 187 ng/mL | concentration at 0.5 h [1, 4]: 153 ng/mL | concentration at 0.5 h [1, 5]: 149 ng/mL | concentration at 1 h [1, 4]: 112 ng/mL | concentration at 1 h [1, 5]: 117 ng/mL | concentration at 8 h [1, 5]: 25 ng/mL | concentration at 24 h [1, 4]: 2.27 ng/mL | concentration at 24 h [1, 5]: 2.82 ng/mL | concentration at 0.25 h [1, 6]: 33.6 ng/mL | concentration at 0.25 h [1, 7]: 31.6 ng/mL | concentration at 0.5 h [1, 6]: 40.6 ng/mL | concentration at 0.5 h [1, 7]: 33.8 ng/mL | concentration at 1 h [1, 6]: 35.9 ng/mL | concentration at 1 h [1, 7]: 32.1 ng/mL | concentration at 24 h [1, 6]: 24.5 ng/mL | concentration at 24 h [1, 7]: 19.1 ng/mL | Cmax ([1]; iv, SD rats, i.v. 2 mg·kg^−1): 380 ± 37 ng/mL | Tmax ([1]; iv, SD rats, i.v. 2 mg·kg^−1): 0.08 h | half-life ([1]; iv, SD rats, i.v. 2 mg·kg^−1): 4.92 ± 0.17 h | clearance ([1]; iv, SD rats, i.v. 2 mg·kg^−1, unit inferred): 42.5 mL/min/kg | Cmax ([1]; po, SD rats, p.o. 20 mg·kg^−1): 95.8 ± 16.6 ng/mL | Tmax ([1]; po, SD rats, p.o. 20 mg·kg^−1): 4.67 ± 2.31 h | half-life ([1]; po, SD rats, p.o. 20 mg·kg^−1): 8.03 ± 2.16 h | bioavailability ([1]; po, SD rats, p.o. 20 mg·kg^−1, read-out: F (oral bioavailability)): 17.9 ± 1.97% | cell migration (in words) [2]: significantly inhibited cell migration | percentage of CD11b^+F4/80^+ cells (macrophages) in lung ([3]; day 14, BLM group 19.9%, sham 9.9%): 9.27% | percentage of CD11b^+Gr1^+ cells (MDSCs) in lung ([3]; day 14, BLM group 20.5%, sham 5.14%): 7.07%
